≈ marks a conversion by molar mass, not a printed value. Entries after “also recorded” stand apart in the source; their conditions may differ.
Tests used:
[1] = test system: S. Typhimurium SE39 ΔtolC; assay: Real-time ethidium bromide accumulation assay; format: cell-based, Salmonella enterica serovar Typhimurium; settings: S. Typhimurium SE39 ΔtolC; ½ MIC; minute 60
Experimental: (§1) The impact of compounds on EB accumulation was determined by the automated EB method using a CLARIOstar Plus plate reader (BMG Labtech, UK). Firstly, the bacterial strain was incubated until it reached an optical density (OD) of 0.6 at 600 nm. The culture was washed with phosphate buffered saline (PBS; pH 7.4) and centrifuged at 13,000× g for 3 min, the cell pellet was re-suspended in PBS. The compounds were added at ½ MIC concentration to PBS containing a non-toxic concentration of EB (1 µg/mL). Then, 50 μL of the EB solution containing the compound were transferred into 96-well black microtiter plate (Greiner Bio-One Hungary Kft, Hungary), and 50 μL of bacterial suspension (OD600 0.6) were added to the each well. Then, the plates were placed into the CLARIOstar plate reader, and the fluorescence was monitored at excitation and emission wavelengths of 530 nm and 600 nm every minute for one hour on a real-time basis. From the real-time data, the activity of the compounds, namely the relative fluorescence index (RFI) of the last time point (minute 60) of the EB accumulation assay, was calculated according to the following formula:RFI = (RFtreated − RFuntreated)/RFuntreated(2) where RFtreated is the relative fluorescence (RF) at the last time point of EB retention curve in the presence of an inhibitor, and RFuntreated is the RF at the last time point of the EB retention curve of the untreated control having the solvent control (DMSO).

[2] = test system: S. Typhimurium SE03 ΔacrA; assay: Real-time ethidium bromide accumulation assay; format: cell-based, Salmonella enterica serovar Typhimurium; settings: S. Typhimurium SE03 ΔacrA; ½ MIC; minute 60
Experimental: as §1

[3] = test system: MRC-5 human embryonal lung fibroblast cells; assay: Cytotoxicity assay (MTT); format: cell-based; settings: MRC-5 cells
Experimental: The adherent MRC-5 human embryonal lung fibroblast cells were cultured in 96-well flat-bottomed microtiter plates, using EMEM supplemented with 10% heat-inactivated fetal bovine serum. The density of the cells was adjusted to 1 × 10^4 cells in 100 μL per well, the cells were seeded overnight at 37 °C, 5% CO2, then the medium was removed from the plates containing the cells, and the dilutions of selenocompounds previously made in a separate plate were added to the cells in 200 μL.
The culture plates were incubated at 37 °C for 24 h; at the end of the incubation period, 20 μL of MTT (thiazolyl blue tetrazolium bromide, Sigma) solution (from a stock solution of 5 mg/mL) was added to each well. After incubation at 37 °C for 4 h, 100 μL of sodium dodecyl sulfate (SDS; Sigma) solution (10% in 0.01 M HCI) was added to each well and the plates were further incubated at 37 °C overnight. Cell growth was determined by measuring the optical density (OD) at 540/630 nm with Multiscan EX ELISA reader (Thermo Labsystems, Cheshire, WA, USA). Inhibition of the cell growth was determined according to the formula below:IC50 = 100 − [(ODsample − ODmedium control)/(ODcell control − ODmedium control)] × 100(1)
Results are expressed in terms of IC50, defined as the inhibitory dose that reduces the growth of the cells exposed to the tested compounds by 50%.

[4] = test system: C. violaceum 026 sensor strain with AHL producer E. cloacae 31298 (violacein production); assay: Quorum sensing (QS) inhibition, parallel inoculation disk diffusion; format: cell-based, Chromobacterium violaceum; settings: disc with 10 μL compound, starting concentration ½ MIC; 24–48 h
Experimental: The QS inhibitory effect of selenocompounds was examined on the AHL producer E. cloacae strain and C. violaceum sensor bacterial strain. These strains were inoculated in parallel. The QS inhibition was monitored by agar diffusion method on LB* agar plate as described previously. Filter paper discs (7.0 mm in diameter) were placed between the parallel inoculated strains and impregnated with 10 μL compounds. Starting concentration of the compounds was ½ MIC. The agar plates were incubated at room temperature (20 °C) for 24–48 h and the inhibition of violacein production was measured.

[5] = test system: S. Typhimurium SE01 Wild-Type; assay: Real-time ethidium bromide accumulation assay; format: cell-based, Salmonella enterica serovar Typhimurium; settings: ½ MIC, minute 60
Experimental: as §1

[6] = test system: S. Typhimurium SE02 ΔacrB; assay: Real-time ethidium bromide accumulation assay; format: cell-based, Salmonella enterica serovar Typhimurium; settings: S. Typhimurium SE02 ΔacrB; ½ MIC; minute 60
Experimental: as §1

[7] = test system: S. Typhimurium SE01 Wild-Type; assay: MIC determination by microdilution method; format: cell-based, Salmonella enterica serovar Typhimurium; settings: Salmonella enterica; S. Typhimurium SE01 wild-type; read-out: MIC
Experimental: (§2) The minimum inhibitory concentrations (MICs) of compounds were determined according to the Clinical and Laboratory Standard Institute guidelines (CLSI). MIC values of the compounds were determined by visual inspection. The solvent was also assayed to ensure there was no antibacterial effect and the concentration (1 v/v%) applied in the assays had no antibacterial activity. DMSO was used at subinhibitory concentration (1 v/v%) in the assays.

[8] = test system: S. aureus ATCC 25923; assay: Real-time ethidium bromide accumulation assay; format: cell-based, Staphylococcus aureus; set-up: key to Relative Fluorescence Index (RFI): RFI = (RFtreated − RFuntreated)/RFuntreated at minute 60; settings: for Relative Fluorescence Index (RFI): S. aureus ATCC 25923, ½ MIC, minute 60; for EPI activity (in words): reference (sensitive) S. aureus, 60 min
Experimental: as §1

[9] = test system: S. aureus MRSA 272123; assay: Real-time ethidium bromide accumulation assay; format: cell-based, Staphylococcus aureus; settings: for Relative Fluorescence Index (RFI): S. aureus MRSA 272123, ½ MIC, minute 60; for EPI activity (in words): resistant S. aureus MRSA, 60 min
Experimental: as §1

[10] = test system: S. aureus MRSA 272123; assay: MIC determination by microdilution method; format: cell-based; settings: Staphylococcus aureus; S. aureus MRSA 272123; read-out: MIC
Experimental: as §2

[11] = test system: Staphylococcus aureus ATCC 25923; assay: MIC determination by microdilution method; format: cell-based; settings: S. aureus ATCC 25923
Experimental: as §2

[12] = test system: S. aureus MRSA 272123; assay: Resistance modulation assay (checkerboard) with TET or CIP; format: cell-based, Staphylococcus aureus; settings: for Interaction with CIP: MRSA strain; for X-fold reduction of MIC of CIP: S. aureus MRSA 272123, compound at ½ MIC, with CIP
Experimental: (§3) The resistance modulation effect of compounds with ciprofloxacin (CIP) and tetracycline (TET) antibiotics were evaluated by the checkerboard method on S. aureus strains. Briefly, CIP or TET was diluted in a 96-well microtiter plate by two-fold serial dilution in MH broth and then the compounds were added at subinhibitory concentrations (½ MIC). In this assay, only the tested compounds with well-defined MIC values were tested. Finally, 10^−4 dilution of the overnight bacterial culture in MH was added to each well. The final volume was 200 µL in each well. The microtiter plates were incubated at 37 °C for 18 h. MIC values in the presence of the antibiotics alone and in combination with Se-compounds were determined by visual inspection.

[13] = test system: S. Typhimurium SE39 ΔtolC; assay: MIC determination by microdilution method; format: cell-based, Salmonella enterica serovar Typhimurium; settings: Salmonella enterica
Experimental: as §2

[14] = test system: reference S. aureus strain (ATCC 25923); assay: Biofilm formation using crystal violet; format: cell-based, Staphylococcus aureus
Experimental: (§4) The anti-biofilm effect of the tested compounds against S. aureus strains and wild-type S. Typhimurium SE01 was measured using crystal violet (CV; 0.1% (v/v)). This dye is used to detect the total biofilm biomass formed. Overnight cultures were diluted to OD of 0.1 at 600 nm in TSB medium. Then, the bacterial cultures were added to 96-well microtiter plates and the compounds were added at ½ MIC concentration. The final volume was 200 μL in each well. The microtiter plates were incubated at 30 °C for 48 h with gentle agitation (100 rpm). After the incubation period, TSB medium was discarded, and the plates were washed with tap water to remove unattached cells. Then 200 μL crystal violet was added to the wells and incubated for 15 min at room temperature. Then, CV was removed from the wells and the plates were washed again with tap water, and 200 μL of 70% ethanol was added to the wells. Finally, the biofilm formation was determined by measuring the OD at 600 nm using Multiscan EX ELISA plate reader (Thermo Labsystems, Cheshire, WA, USA). The anti-biofilm effect of compounds was expressed in the percentage (%) of decrease in biofilm formation.

[15] = test system: S. aureus MRSA; assay: Biofilm formation using crystal violet; format: cell-based, Staphylococcus aureus
Experimental: as §4

[16] = test system: S. Typhimurium SE03 ΔacrA; assay: MIC determination by microdilution method; format: cell-based, Salmonella enterica serovar Typhimurium; settings: Salmonella enterica
Experimental: as §2

[17] = test system: S. Typhimurium SE02 ΔacrB; assay: MIC determination by microdilution method; format: cell-based, Salmonella enterica serovar Typhimurium; settings: Salmonella enterica
Experimental: as §2

[18] = test system: S. aureus ATCC 25923; assay: Resistance modulation assay (checkerboard) with TET or CIP; format: cell-based, Staphylococcus aureus
Experimental: as §3

[19] = Staphylococcus aureus, ATCC25923

SMILES	Relative Fluorescence Index (RFI) [1]	Relative Fluorescence Index (RFI) [2]	IC50 ([3]; Homo sapiens, MRC5, 24 h) [µM]	QS zone of inhibition [4] [mm]	Relative Fluorescence Index (RFI) [5]	Relative Fluorescence Index (RFI) [6]	MIC [7] [µM]	Relative Fluorescence Index (RFI) [8]	Relative Fluorescence Index (RFI) [9]	MIC [10] [µM]	MIC [11] [µM]	MIC [11, 19] [µM]	Interaction with CIP [12]	X-fold reduction of MIC of CIP [12] [fold]	MIC [13] [µM]	Anti-biofilm effect (in words) [15]	IC50 ([3]; 24 h) [µM]	MIC [16] [µM]	MIC [17] [µM]	EPI activity (in words) [8]	also measured
CC(=O)C[Se]C(=O)c1ccc(C(=O)[Se]CC(C)=O)cc1 [Se-K1]	0.27	0.17	0.54	37	−0.16	0.10	50 (≈ 20.2 µg/mL)	0.1	−0.15	1.56 (≈ 0.631 µg/mL)	0.39 (≈ 0.158 µg/mL)	0.39 (≈ 0.158 µg/mL)	synergism	2							
CC(=O)C[Se]C(=O)c1cccc(C(=O)[Se]CC(C)=O)c1 [Se-K2]	0.26	0.20	1.34	40	−0.04	0.13	50 (≈ 20.2 µg/mL)	0.11	−0.07	1.56 (≈ 0.631 µg/mL)	0.39 (≈ 0.158 µg/mL)	0.39 (≈ 0.158 µg/mL)			100 (≈ 40.4 µg/mL)	promoted the biofilm formation					Biofilm inhibition ([14]; reference S. aureus, ½ MIC, 48 h): 30.3%
COC(=O)C[Se]C(=O)c1cc(C(=O)[Se]CC(=O)OC)cc(C(=O)[Se]CC(=O)OC)c1 [Se-E3]	0.25	0.27	> 75		0.26	0.08	> 100	4.15	0.47	100 (≈ 61.5 µg/mL)	12.5 (≈ 7.69 µg/mL)	12.5 (≈ 7.69 µg/mL)	synergism	2	> 100	significant biofilm inhibition	76.6	> 100	> 100	most prominent EPI activity; also recorded: significantly effective pump inhibition	EPI activity (in words) [9]: most prominent EPI activity; also recorded: significantly effective pump inhibition; Anti-biofilm effect (in words) ([14]; sensitive (reference) S. aureus): significant biofilm inhibition; X-fold reduction of MIC of TET ([18]; S. aureus ATCC 25923, compound at ½ MIC, with TET): 2 fold; Interaction with TET ([18]; methicillin-susceptible S. aureus ATCC 25923): synergism
COC(=O)C[Se]C(=O)c1ccc(C(=O)[Se]CC(=O)OC)cc1 [Se-E1]	0.15	0.03	> 75	41	−0.10	−0.03	> 100	0.98	0.19	100 (≈ 43.6 µg/mL)	12.5 (≈ 5.45 µg/mL)	12.5 (≈ 5.45 µg/mL)			> 100		77.9	> 100	> 100	effective	EPI activity (in words) [9]: effective

Reference: article PMC7232442, “Biofilm Eradication by Symmetrical Selenoesters for Food-Borne Pathogens” (Microorganisms, 2020)
